The target in experiment [1] is T1, VR1 (human) (Homo sapiens, UniProt Q8NER1).
T1 construct: expressed in transfected cells; host or cells: CHO K1 cells (ECACC)
As to the kind of experiment: Functional testing on vanilloid receptor VR1, FLIPR Ca2+ inflow assay (CHO K1 cells stably transfected with the VR1 gene). The experiment is classed as cell-based. The note with it: test compound 10 μM; for inhibition at 10 µM / activation at 10 µM: CHO-K1; for inhibition at 10 µM / VR1 (human) (% inhibition compared to 10 μM CP): 5 min incubation, then 100 nM capsaicin, relative to maximum achievable inhibition with 10 μM capsaicin; for inhibition at 10 µM: read-out: VR1 (human) (% inhibition compared to 10 μM CP); for activation at 10 µM / VR1 (human) (% stimulation compared to 10 μM CP): Ca2+ inflow relative to signal of 10 μM capsaicin (CP); for activation at 10 µM: read-out: VR1 (human) (% stimulation compared to 10 μM CP). The text has this:
II. Functional Testing Carried out on the Vanilloid Receptor (VR1)
The agonistic or antagonistic effect of the substances to be tested can also be determined on the vanilloid receptor (VR1) using the following assay. According to this assay, the Ca^2+ inflow is quantified through the channel using a Ca^2+-sensitive dye (type Fluo-4, Molecular Probes Europe BV, Leiden, Netherlands) in a fluorescent imaging plate reader (FLIPR, Molecular Devices, Sunnyvale, USA).
Chinese hamster ovary cells (CHO K1 cells, European Collection of Cell Cultures (ECACC) United Kingdom) were stably transfected with the VR1 gene. For functional testing, these cells were plated out on poly-D-lysine-coated black 96 well plates having a clear base (BD Biosciences, Heidelberg, Germany) at a density of 25,000 cells/well. The cells were incubated overnight at 37° C. and 5% CO2 in a culture medium (Ham's F12 nutrient mixture, 10-% by volume of FCS (foetal calf serum), 18 μg/ml L-proline). The next day the cells were incubated with Fluo-4 (Fluo-4 2 μM, 0.01% by volume of Pluronic F127, Molecular Probes in HBSS (Hank's buffered saline solution), Gibco Invitrogen GmbH, Karlsruhe, Germany) for 30 minutes at 37° C. Subsequently, the plates were washed 3 times with HBSS buffer and after further incubation for 15 minutes at room temperature used for Ca^2+ measurement in a FLI PR assay. The Ca^2+-dependent fluorescence was measured before and after the addition of the substances to be tested (λex wavelength=488 nm, λem=540 nm). Quantification was carried out by measuring the highest fluorescence intensity (FC, Fluorescence Counts) over time.
The FLIPR protocol consists of 2 substance additions. First the compounds to be tested (10 μM) were pipetted onto the cells and the Ca^2+ inflow was compared with the control (capsaicin 10 μM) (% activation based on the Ca^2+ signal after the addition of 10 μM capsaicin). After 5 minutes' incubation, 100 nM of capsaicin were administered and the Ca^2+ inflow was also determined.
Desensitising agonists and antagonists led to suppression of the Ca^2+ inflow. The % inhibition was calculated compared to the maximum achievable inhibition with 10 μM of capsaicin.

For experiment [2], the target named is T2, rat-species vanilloid receptor 1 (VR1/TRPV1) (Rattus norvegicus, UniProt O35433).
T2 construct: endogenous in cells; host or cells: primary cultured rat dorsal root ganglion cells
T2 sequence (O35433 whole entry): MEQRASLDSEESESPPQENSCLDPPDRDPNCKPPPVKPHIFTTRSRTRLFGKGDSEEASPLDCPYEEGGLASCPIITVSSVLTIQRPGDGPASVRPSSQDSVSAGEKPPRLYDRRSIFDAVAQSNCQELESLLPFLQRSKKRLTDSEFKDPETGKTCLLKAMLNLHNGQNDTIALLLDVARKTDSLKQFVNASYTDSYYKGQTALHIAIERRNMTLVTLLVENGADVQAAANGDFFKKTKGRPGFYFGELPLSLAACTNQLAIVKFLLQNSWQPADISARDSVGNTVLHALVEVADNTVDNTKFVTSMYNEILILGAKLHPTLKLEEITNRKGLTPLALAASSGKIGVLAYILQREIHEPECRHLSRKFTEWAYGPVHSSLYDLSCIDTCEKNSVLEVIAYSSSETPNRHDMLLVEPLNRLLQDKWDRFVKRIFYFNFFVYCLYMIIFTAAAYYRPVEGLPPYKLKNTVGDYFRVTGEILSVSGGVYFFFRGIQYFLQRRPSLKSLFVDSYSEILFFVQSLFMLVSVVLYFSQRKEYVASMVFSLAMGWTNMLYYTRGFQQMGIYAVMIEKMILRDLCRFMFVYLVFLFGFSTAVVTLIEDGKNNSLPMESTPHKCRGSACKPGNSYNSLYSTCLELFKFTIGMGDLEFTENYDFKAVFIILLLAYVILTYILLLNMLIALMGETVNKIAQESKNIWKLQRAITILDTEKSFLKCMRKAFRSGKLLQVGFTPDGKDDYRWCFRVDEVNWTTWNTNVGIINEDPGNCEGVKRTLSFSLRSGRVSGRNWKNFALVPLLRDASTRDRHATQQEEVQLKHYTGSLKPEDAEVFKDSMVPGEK
Put plainly: Functional testing on vanilloid receptor 1 (VR1/TRPV1), FLIPR Ca2+ inflow assay in rat dorsal root ganglia cells. In kind it is cell-based. Particulars: test compound 10 μM; for inhibition at 10 µM / VR1 (rat) (% inhibition compared to 10 μM CP): 5 min incubation, then 100 nM capsaicin, relative to maximum achievable inhibition with 10 μM capsaicin; for inhibition at 10 µM: read-out: VR1 (rat) (% inhibition compared to 10 μM CP); for activation at 10 µM / VR1 (rat) (% stimulation compared to 10 μM CP): Ca2+ inflow relative to signal of 10 μM capsaicin (CP); for activation at 10 µM: read-out: VR1 (rat) (% stimulation compared to 10 μM CP). The text has this: I. Functional Testing Carried out on the Vanilloid Receptor 1 (VRI/TRPV1 Receptor)
The agonistic or antagonistic effect of the substances to be tested can be determined on the rat-species vanilloid receptor 1 (VR1/TRPV1) using the following assay. According to this assay, the Ca^2+ inflow is quantified through the receptor channel using a Ca^2+-sensitive dye (type Fluo-4, Molecular Probes Europe BV, Leiden, Netherlands) in a fluorescent imaging plate reader (FLIPR, Molecular Devices, Sunnyvale, USA).
Complete medium: 50 mL HAMS F12 nutrient mixture (Gibco Invitrogen GmbH, Karlsruhe, Germany) with
10% by volume of FCS (foetal calf serum, Gibco Invitrogen GmbH, Karlsruhe, Germany, […]);
2 mM L-glutamine (Sigma, Munich, Germany);
1% by weight of AA solution (antibiotic/antimyotic solution, PAA, Pasching, Austria) and 25 ng/ml NGF medium (2.5 S, Gibco Invitrogen GmbH, Karlsruhe, Germany)
Cell culture plate: Poly-D-lysine-coated, black 96 well plates having a clear base (96 well black/clear plate, BD Biosciences, Heidelberg, Germany) were additionally coated with laminin (Gibco Invitrogen GmbH, Karlsruhe, Germany), the laminin being diluted with PBS (Ca—Mg-free PBS, Gibco Invitrogen GmbH, Karlsruhe, Germany) to a concentration of 100 μg/mL. Aliquots having a laminin concentration of 100 μg/mL were removed and stored at −20° C. The aliquots were diluted with PBS in a ratio of 1:10 to 10 μg/mL laminin and in each case 50 μL of the solution were pipetted into a recess in the cell culture plate. The cell culture plates were incubated for at least two hours at 37° C., the excess solution was removed by suction-filtration and the recesses were each washed twice with PBS. The coated cell culture plates were stored with excess PBS which was not removed until just before the feeding of the cells.
Preparation of the Cells:
The vertebral column was removed from decapitated rats and placed immediately into cold HBSS buffer (Hank's buffered saline solution, Gibco Invitrogen GmbH, Karlsruhe, Germany), i.e. buffer located in an ice bath, mixed with 1% by volume (percent by volume) of an AA solution (antibiotic/antimyotic solution, PAA, Pasching, Austria). The vertebral column was cut longitudinally and removed together with fasciae from the vertebral canal. Subsequently, the dorsal root ganglia (DRG) were removed and again stored in cold HBSS buffer mixed with 1% by volume of an AA solution. The DRG, from which all blood remnants and spinal nerves had been removed, were transferred in each case to 500 μL of cold type 2 collagenase (PAA, Pasching, Austria) and incubated for 35 minutes at 37° C. After the addition of 2.5% by volume of trypsin (PAA, Pasching, Austria), incubation was continued for 10 minutes at 37° C. After complete incubation, the enzyme solution was carefully pipetted off and 500 μL of complete medium were added to each of the remaining DRG. The DRG were in each case suspended several times, drawn through cannulae No. 1, No. 12 and No. 16 using a syringe and transferred to a 50 mL Falcon tube which was filled up to 15 mL with complete medium. The contents of each Falcon tube was in each case filtered through a 70 μm Falcon filter element and centrifuged for 10 minutes at 1,200 rpm and room temperature. The resulting pellet was in each case taken up in 250 μL of complete medium and the number of cells determined.
The number of cells in the suspension was set to 3×10^5 per mL and 150 μL of this suspension were in each case introduced into a recess in the cell culture plates coated as described hereinbefore. In the incubator the plates were left for two to three days at 37° C., 5% by volume of CO2 and 95% relative humidity. […]

This is an account of results in US20080214807A1, “Substituted Spiro Compounds and their Use for Producing Drugs” (Gruenenthal GmbH, priority 2005, published 2008).

T1 sequence (Q8NER1 whole entry): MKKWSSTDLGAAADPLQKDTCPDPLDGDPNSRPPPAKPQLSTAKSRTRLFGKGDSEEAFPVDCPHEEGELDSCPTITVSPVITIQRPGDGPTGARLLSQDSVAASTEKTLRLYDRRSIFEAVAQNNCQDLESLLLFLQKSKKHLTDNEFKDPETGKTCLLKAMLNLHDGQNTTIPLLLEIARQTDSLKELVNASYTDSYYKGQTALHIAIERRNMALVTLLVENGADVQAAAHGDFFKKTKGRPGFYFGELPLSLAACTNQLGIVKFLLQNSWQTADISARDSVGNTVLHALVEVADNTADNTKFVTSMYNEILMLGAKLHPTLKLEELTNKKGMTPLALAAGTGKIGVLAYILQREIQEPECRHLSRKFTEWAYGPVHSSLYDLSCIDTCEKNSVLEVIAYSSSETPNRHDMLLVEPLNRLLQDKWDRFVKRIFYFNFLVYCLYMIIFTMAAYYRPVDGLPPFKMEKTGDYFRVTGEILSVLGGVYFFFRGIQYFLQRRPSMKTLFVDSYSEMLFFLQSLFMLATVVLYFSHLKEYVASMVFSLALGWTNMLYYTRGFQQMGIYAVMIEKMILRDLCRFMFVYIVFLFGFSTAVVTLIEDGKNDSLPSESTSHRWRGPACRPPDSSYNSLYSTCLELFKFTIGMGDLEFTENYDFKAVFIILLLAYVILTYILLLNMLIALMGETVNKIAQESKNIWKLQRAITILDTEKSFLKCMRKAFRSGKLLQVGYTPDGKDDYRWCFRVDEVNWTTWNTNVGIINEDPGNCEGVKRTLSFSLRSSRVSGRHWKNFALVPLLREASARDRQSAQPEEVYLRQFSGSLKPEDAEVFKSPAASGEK

One may read the inhibition as the relative decrease from the control value, in per cent. Take `O=C(Nc1cccc(Br)c1)N1CCC2(CC1)CC(C(=O)N1CCN(c3ncccc3Cl)CC1)=NO2` [Example 11, 3-[4-(3-chloropyridin-2-yl)piperazine-1-carbonyl]-1-oxa-2,8-diazaspiro[4.5]dec-2-ene-8-carboxylic acid-(3-bromophenyl)amide]: in experiment [1], the inhibition at 10 µM turned out to be 37.3% and the activation at 10 µM was -0.15%. For the same compound, in experiment [2], the inhibition at 10 µM amounted to 41.3% and the activation at 10 µM is 11.4%.
On to `O=C(Nc1ccc(S(F)(F)(F)(F)F)cc1)N1CCC2(CC1)CC(C(=O)N1CCN(c3ncccc3Cl)CC1)=NO2` [Example 229, 3-[4-(3-chloropyridin-2-yl)piperazine-1-carbonyl]-1-oxa-2,8-diazaspiro[4.5]dec-2-ene-8-carboxylic acid-(4-pentafluorosulphanylphenyl)amide], for which, in experiment [1], the inhibition at 10 µM stood at 37% and the activation at 10 µM amounted to 10%. Besides, in experiment [2], the inhibition at 10 µM was 94% and the activation at 10 µM is 45%.
Consider `O=C(Nc1cccc(C(F)(F)F)c1)N1CCC2(CC1)CC(C(=O)N1CCN(c3ncccc3Cl)CC1)=NO2` [Example 68, 3-[4-(3-chloropyridin-2-yl)piperazine-1-carbonyl]-1-oxa-2,8-diazaspiro[4.5]dec-2-ene-8-carboxylic acid-(3-trifluoromethylphenyl)amide], for which, in experiment [1], the inhibition at 10 µM was determined as 24.9% and the activation at 10 µM turned out to be 16.4%. In experiment [2], the inhibition at 10 µM was found to be 58.1% and the activation at 10 µM is 6.55%.
On the same counts, the results for `CSc1ccc(NC(=O)N2CCC3(CC2)CC(C(=O)N2CCN(c4ncccc4Cl)CC2)=NO3)cc1` [Example 58, 3-[4-(3-chloropyridin-2-yl)piperazine-1-carbonyl]-1-oxa-2,8-diazaspiro[4.5]dec-2-ene-8-carboxylic acid-(4-methylsulphanylphenyl)amide] are 84.9%, 72.9%, 72.5% and 19.5%.
As to `COc1cccc(NC(=O)N2CCC3(CC2)CC(C(=O)Nc2ccc(Cl)cn2)=NO3)c1` [Example 18, 1-oxa-2,8-diazaspiro[4.5]dec-2-ene-3,8-dicarboxylic acid-3-[(5-chloropyridin-2-yl)amide]-8-[(3-methoxyphenyl)amide]], in experiment [1], the “VR1 (human) (% inhibition compared to 10 μM CP)” value turned out to be 11.17% and the “VR1 (human) (% stimulation compared to 10 μM CP)” value amounted to 0.67%. Also, in experiment [2], the “VR1 (rat) (% inhibition compared to 10 μM CP)” value turned out to be 34.24% and the “VR1 (rat) (% stimulation compared to 10 μM CP)” value turned out to be 4.68%.
Turning to `O=C(Nc1ccc(Cl)c(C(F)(F)F)c1)N1CCC2(CC1)CC(C(=O)N1CCN(c3ncccc3Cl)CC1)=NO2` [Example 28, 3-[4-(3-chloropyridin-2-yl)piperazine-1-carbonyl]-1-oxa-2,8-diazaspiro[4.5]dec-2-ene-8-carboxylic acid-(4-chloro-3-trifluoromethylphenyl)amide], in experiment [1], the inhibition at 10 µM amounted to 27.6% and the activation at 10 µM came to 0.08%. Moreover, in experiment [2], the inhibition at 10 µM turned out to be 45.9% and the activation at 10 µM is 0.63%.
The corresponding values for `CC(C)(C)c1ccc(NC(=O)N2CCC3(CC2)CC(C(=O)N2CCN(c4ncccc4C(F)(F)F)CC2)=NO3)cc1` [Example 228, 3-[4-(3-trifluoromethylpyridin-2-yl)piperazine-1-carbonyl]-1-oxa-2,8-diazaspiro[4.5]dec-2-ene-8-carboxylic acid-(4-tert-butylphenyl)amide] are 48.1%, 7.07%, 100% and 17.2%.
On the same counts, the results for `CC(C)c1ccc(NC(=O)N2CCC3(CC2)CC(C(=O)N2CCN(c4ncccc4Cl)CC2)=NO3)cc1` [Example 63, 3-[4-(3-chloropyridin-2-yl)piperazine-1-carbonyl]-1-oxa-2,8-diazaspiro[4.5]dec-2-ene-8-carboxylic acid-(4-isopropylphenyl)amide] are 15.8%, 2.59%, 78.9% and 24.5%.
Consider `COc1ccc(CNC(=O)C2=NOC3(CCN(C(=O)Nc4ccc(C(F)(F)F)cc4)CC3)C2)cc1OC` [Example 70, 1-oxa-2,8-diazaspiro[4.5]dec-2-ene-3,8-dicarboxylic acid-3-(3,4-dimethoxybenzylamide)-8-[(4-trifluoromethylphenyl)amide]], for which, in experiment [1], the “VR1 (human) (% inhibition compared to 10 μM CP)” value is recorded as −0.43% and the “VR1 (human) (% stimulation compared to 10 μM CP)” value is listed as −0.18%. In experiment [2], the “VR1 (rat) (% inhibition compared to 10 μM CP)” value stood at 67.41% and the “VR1 (rat) (% stimulation compared to 10 μM CP)” value amounted to 0.35%.
Regarding `O=C(Nc1ccc(Cl)cc1)N1CCC2(CC1)CC(C(=O)N1CCN(c3ncccc3Cl)CC1)=NO2` [Example 51, 3-[4-(3-chloropyridin-2-yl)piperazine-1-carbonyl]-1-oxa-2,8-diazaspiro[4.5]dec-2-ene-8-carboxylic acid-(4-chlorophenyl)amide], in experiment [1], the inhibition at 10 µM worked out at 63.4% and the activation at 10 µM was 13.2%. In addition, in experiment [2], the inhibition at 10 µM amounted to 98.8% and the activation at 10 µM worked out at 18.6%.
